Values after ≈ are worked out from the molar mass of the structure shown.
Legend:
Format in all cases: cell-based
[1] = test system: Enterococcus faecalis (EFA); assay: MIC, two-fold agar dilution (CLSI), clinical isolates
Text: (§1) 1. The invention adopts the two-fold agar dilution method recommended by the operating procedure of antimicrobial susceptibility testing set by American Clinical and Laboratory Standards Institute (CLSI) to determine the Minimum Inhibitory Concentration (MIC) of the test samples against the tested strains.

[2] = test system: Enterococcus faecium (EFM); assay: as above
Text: as §1

[3] = test system: Escherichia coli (including ESBLs, non-ESBLs); assay: as above
Text: as §1

[4] = test system: Moraxella catarrhalis (BCA); assay: as above; settings: for Anti-bacterial activity (MIC), strain BCA 14-10: clinical isolate BCA 14-10
Text: as §1

[5] = test system: Streptococcus pneoumoniae (SPN); assay: as above
Text: as §1

[6] = test system: methicillin-resistant Staphylococcus aureus (MRSA); assay: as above
Text: as §1

[7] = test system: methicillin-resistant Staphylococcus epidermidis (MRSE); assay: as above
Text: as §1

[8] = test system: methicillin-sensitive Staphylococcus aureus (MSSA); assay: as above
Text: as §1

[9] = test system: methicillin-sensitive Staphylococcus epidermidis (MSSE); assay: as above
Text: as §1

[10] = test system: HCT-116 colorectal cancer cell line; assay: CCK-8 proliferation inhibition; settings: Homo sapiens, HCT-116, 72 h, concentration of 30 μM; 72 hours; CCK-8; read-out: HCT116 inhibition rate/%
Method in brief: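 Cells seeded at 2000 cells/well, cultured overnight at 37 °C, 5% CO2, then exposed to compound (DMSO; control 1‰ DMSO) for 72 h in McCoy's 5A with 10% newborn bovine serum. Viability read with 1:10 diluted CCK-8.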

O=CN(O)C[C@@H](CC1CCCC1)C(=O)N1CC2(CC2)C[C@H]1C(=O)Nc1cc[nH]n1 [Example 31, (S)-5-((R)-3-cyclopentyl-2-((N-hydroxyformamido)methyl)propionyl)-N-(1H-pyrazol-3-yl)-5-azaspiro[2.4]heptane-6-carboxamide]
MIC (anti-bacterial activity) ([1]; strain EFA 15-1): 32 µg/mL (≈ 79.3 µM) | MIC (anti-bacterial activity) ([1]; strain EFA 15-2): 32 µg/mL (≈ 79.3 µM) | MIC (anti-bacterial activity) ([1]; strain EFA 15-3): 32 µg/mL (≈ 79.3 µM) | MIC (anti-bacterial activity) ([1]; strain EFA 15-4): 32 µg/mL (≈ 79.3 µM) | MIC (anti-bacterial activity) ([1]; strain EFA 15-5): 32 µg/mL (≈ 79.3 µM) | MIC (anti-bacterial activity) ([1]; strain EFA 15-6): 32 µg/mL (≈ 79.3 µM) | MIC (anti-bacterial activity) ([1]; strain EFA 15-9): 32 µg/mL (≈ 79.3 µM) | MIC (anti-bacterial activity) ([2]; strain EFM 15-1): 4 µg/mL (≈ 9.91 µM) | MIC (anti-bacterial activity) ([2]; strain EFM 15-2): 4 µg/mL (≈ 9.91 µM) | MIC (anti-bacterial activity) ([2]; strain EFM 15-3): 2 µg/mL (≈ 4.96 µM) | MIC (anti-bacterial activity) ([2]; strain EFM 15-4): 4 µg/mL (≈ 9.91 µM) | MIC (anti-bacterial activity) ([2]; strain EFM 15-5): 2 µg/mL (≈ 4.96 µM) | MIC (anti-bacterial activity) ([2]; strain EFM 15-6): 4 µg/mL (≈ 9.91 µM) | MIC (anti-bacterial activity) ([3]; strain ECO+ 15-1): 32 µg/mL (≈ 79.3 µM) | MIC (anti-bacterial activity) ([3]; strain ECO+ 15-2): > 32 µg/mL | MIC (anti-bacterial activity) ([3]; strain ECO+ 15-3): > 32 µg/mL | MIC (anti-bacterial activity) ([3]; strain ECO+ 15-4): > 32 µg/mL | MIC (anti-bacterial activity) ([3]; strain ECO− 15-1): > 32 µg/mL | MIC (anti-bacterial activity) ([3]; strain ECO− 15-2): > 32 µg/mL | MIC (anti-bacterial activity) ([3]; strain ECO− 15-3): > 32 µg/mL | MIC (anti-bacterial activity) ([3]; strain ECO− 15-4): > 32 µg/mL | Anti-bacterial activity (MIC), strain BCA 14-10 [4]: 2 µg/mL | MIC (anti-bacterial activity) ([4]; strain BCA 14-1): 4 µg/mL (≈ 9.91 µM) | MIC (anti-bacterial activity) ([4]; strain BCA 14-4): 16 µg/mL (≈ 39.7 µM) | MIC (anti-bacterial activity) ([4]; strain BCA 14-5): 2 µg/mL (≈ 4.96 µM) | MIC (anti-bacterial activity) ([4]; strain BCA 14-6): 8 µg/mL (≈ 19.8 µM) | MIC (anti-bacterial activity) ([4]; strain BCA 14-7): 2 µg/mL (≈ 4.96 µM) | MIC (anti-bacterial activity) ([4]; strain BCA 14-8): 4 µg/mL (≈ 9.91 µM) | MIC (anti-bacterial activity) ([5]; strain SPN 16-2): 1 µg/mL (≈ 2.48 µM) | MIC (anti-bacterial activity) ([5]; strain SPN 16-4): 16 µg/mL (≈ 39.7 µM) | MIC (anti-bacterial activity) ([6]; strain MRSA 15-1): 2 µg/mL (≈ 4.96 µM) | MIC (anti-bacterial activity) ([6]; strain MRSA 15-2): 2 µg/mL (≈ 4.96 µM) | MIC (anti-bacterial activity) ([6]; strain MRSA 15-3): 2 µg/mL (≈ 4.96 µM) | MIC (anti-bacterial activity) ([6]; strain MRSA 15-4): 2 µg/mL (≈ 4.96 µM) | MIC (anti-bacterial activity) ([7]; strain MRSE 15-1): 0.5 µg/mL (≈ 1.24 µM) | MIC (anti-bacterial activity) ([7]; strain MRSE 15-2): 2 µg/mL (≈ 4.96 µM) | MIC (anti-bacterial activity) ([7]; strain MRSE 15-3): 2 µg/mL (≈ 4.96 µM) | MIC (anti-bacterial activity) ([7]; strain MRSE 15-7): 2 µg/mL (≈ 4.96 µM) | MIC (anti-bacterial activity) ([8]; strain MSSA 15-3): 2 µg/mL (≈ 4.96 µM) | MIC (anti-bacterial activity) ([8]; strain MSSA 15-4): 2 µg/mL (≈ 4.96 µM) | MIC (anti-bacterial activity) ([8]; strain MSSA 15-5): 2 µg/mL (≈ 4.96 µM) | MIC (anti-bacterial activity) ([8]; strain MSSA 15-6): 2 µg/mL (≈ 4.96 µM) | MIC (anti-bacterial activity) ([9]; strain MSSE 15-3): 2 µg/mL (≈ 4.96 µM) | MIC (anti-bacterial activity) ([9]; strain MSSE 15-4): 2 µg/mL (≈ 4.96 µM) | MIC (anti-bacterial activity) ([9]; strain MSSE 15-5): 2 µg/mL (≈ 4.96 µM) | MIC (anti-bacterial activity) ([9]; strain MSSE 15-6): 2 µg/mL (≈ 4.96 µM) | inhibition at 30 µM [10]: 19%

O=CN(O)C[C@@H](CC1CCCC1)C(=O)N1CC2(CC2)C[C@H]1C(=O)N1CCS(=O)(=O)CC1 [Example 35, N—((R)-2-(cyclopentylmethyl)-3-((S)-6-(1,1-dioxythiomorpholine-4-carbonyl)-5-azaspiro[2.4]heptane-5-yl)-3-propylcarbonyl)-N-hydroxyformamide]
MIC (anti-bacterial activity) ([1]; strain EFA 15-1): 32 µg/mL (≈ 70.2 µM) | MIC (anti-bacterial activity) ([1]; strain EFA 15-2): 32 µg/mL (≈ 70.2 µM) | MIC (anti-bacterial activity) ([1]; strain EFA 15-3): 32 µg/mL (≈ 70.2 µM) | MIC (anti-bacterial activity) ([1]; strain EFA 15-4): 32 µg/mL (≈ 70.2 µM) | MIC (anti-bacterial activity) ([1]; strain EFA 15-5): 32 µg/mL (≈ 70.2 µM) | MIC (anti-bacterial activity) ([1]; strain EFA 15-6): 32 µg/mL (≈ 70.2 µM) | MIC (anti-bacterial activity) ([1]; strain EFA 15-9): 32 µg/mL (≈ 70.2 µM) | MIC (anti-bacterial activity) ([2]; strain EFM 15-1): 16 µg/mL (≈ 35.1 µM) | MIC (anti-bacterial activity) ([2]; strain EFM 15-2): 16 µg/mL (≈ 35.1 µM) | MIC (anti-bacterial activity) ([2]; strain EFM 15-3): 16 µg/mL (≈ 35.1 µM) | MIC (anti-bacterial activity) ([2]; strain EFM 15-4): 16 µg/mL (≈ 35.1 µM) | MIC (anti-bacterial activity) ([2]; strain EFM 15-5): 16 µg/mL (≈ 35.1 µM) | MIC (anti-bacterial activity) ([2]; strain EFM 15-6): 16 µg/mL (≈ 35.1 µM) | MIC (anti-bacterial activity) ([3]; strain ECO+ 15-1): 32 µg/mL (≈ 70.2 µM) | MIC (anti-bacterial activity) ([3]; strain ECO+ 15-2): > 32 µg/mL | MIC (anti-bacterial activity) ([3]; strain ECO+ 15-3): > 32 µg/mL | MIC (anti-bacterial activity) ([3]; strain ECO+ 15-4): > 32 µg/mL | MIC (anti-bacterial activity) ([3]; strain ECO− 15-1): > 32 µg/mL | MIC (anti-bacterial activity) ([3]; strain ECO− 15-2): > 32 µg/mL | MIC (anti-bacterial activity) ([3]; strain ECO− 15-3): > 32 µg/mL | MIC (anti-bacterial activity) ([3]; strain ECO− 15-4): > 32 µg/mL | Anti-bacterial activity (MIC), strain BCA 14-10 [4]: 32 µg/mL | MIC (anti-bacterial activity) ([4]; strain BCA 14-1): 32 µg/mL (≈ 70.2 µM) | MIC (anti-bacterial activity) ([4]; strain BCA 14-4): 32 µg/mL (≈ 70.2 µM) | MIC (anti-bacterial activity) ([4]; strain BCA 14-5): 16 µg/mL (≈ 35.1 µM) | MIC (anti-bacterial activity) ([4]; strain BCA 14-6): 32 µg/mL (≈ 70.2 µM) | MIC (anti-bacterial activity) ([4]; strain BCA 14-7): 32 µg/mL (≈ 70.2 µM) | MIC (anti-bacterial activity) ([4]; strain BCA 14-8): 32 µg/mL (≈ 70.2 µM) | MIC (anti-bacterial activity) ([5]; strain SPN 16-2): 16 µg/mL (≈ 35.1 µM) | MIC (anti-bacterial activity) ([5]; strain SPN 16-4): 32 µg/mL (≈ 70.2 µM) | MIC (anti-bacterial activity) ([6]; strain MRSA 15-1): 16 µg/mL (≈ 35.1 µM) | MIC (anti-bacterial activity) ([6]; strain MRSA 15-2): 32 µg/mL (≈ 70.2 µM) | MIC (anti-bacterial activity) ([6]; strain MRSA 15-3): 16 µg/mL (≈ 35.1 µM) | MIC (anti-bacterial activity) ([6]; strain MRSA 15-4): 32 µg/mL (≈ 70.2 µM) | MIC (anti-bacterial activity) ([7]; strain MRSE 15-1): 16 µg/mL (≈ 35.1 µM) | MIC (anti-bacterial activity) ([7]; strain MRSE 15-2): 32 µg/mL (≈ 70.2 µM) | MIC (anti-bacterial activity) ([7]; strain MRSE 15-3): 32 µg/mL (≈ 70.2 µM) | MIC (anti-bacterial activity) ([7]; strain MRSE 15-7): 32 µg/mL (≈ 70.2 µM) | MIC (anti-bacterial activity) ([8]; strain MSSA 15-3): 32 µg/mL (≈ 70.2 µM) | MIC (anti-bacterial activity) ([8]; strain MSSA 15-4): 32 µg/mL (≈ 70.2 µM) | MIC (anti-bacterial activity) ([8]; strain MSSA 15-5): 32 µg/mL (≈ 70.2 µM) | MIC (anti-bacterial activity) ([8]; strain MSSA 15-6): 32 µg/mL (≈ 70.2 µM) | MIC (anti-bacterial activity) ([9]; strain MSSE 15-3): 32 µg/mL (≈ 70.2 µM) | MIC (anti-bacterial activity) ([9]; strain MSSE 15-4): 32 µg/mL (≈ 70.2 µM) | MIC (anti-bacterial activity) ([9]; strain MSSE 15-5): 32 µg/mL (≈ 70.2 µM) | MIC (anti-bacterial activity) ([9]; strain MSSE 15-6): 32 µg/mL (≈ 70.2 µM) | inhibition at 30 µM [10]: -1%

From patent publication US10738028B2, “Spiro three-membered ring, spiro five-membered ring peptide deformylase inhibitor and use thereof in antibacteria and anti-tumor” (priority 2016, dated 2020)
